For 29 molecules, IC50 and ED50 results are on record in patent publication US20110065694A1 (priority 2009, published 2011).

Chain of human histamine H3 receptor (Q9Y5N1 whole entry): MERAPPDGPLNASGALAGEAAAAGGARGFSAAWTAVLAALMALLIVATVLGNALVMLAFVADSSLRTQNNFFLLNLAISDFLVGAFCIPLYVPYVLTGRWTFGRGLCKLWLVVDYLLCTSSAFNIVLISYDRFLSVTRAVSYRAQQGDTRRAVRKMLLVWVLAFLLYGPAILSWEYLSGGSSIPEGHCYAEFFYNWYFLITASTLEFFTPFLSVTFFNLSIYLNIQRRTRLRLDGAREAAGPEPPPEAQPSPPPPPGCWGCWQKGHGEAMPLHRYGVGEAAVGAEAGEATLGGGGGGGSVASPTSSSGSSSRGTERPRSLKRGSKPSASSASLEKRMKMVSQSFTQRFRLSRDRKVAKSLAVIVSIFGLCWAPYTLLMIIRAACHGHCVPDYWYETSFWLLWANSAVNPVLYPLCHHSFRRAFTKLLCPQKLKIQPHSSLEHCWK

One assay concerns the target human histamine H3 receptor (Homo sapiens, UniProt Q9Y5N1). Nature of the assay: H3 GTPγS assay (SPA method), histamine H3 in vitro assay. The class given is biochemical.
Settings: not given
How it is done: Briefly, cells expressing the human histamine H3 receptor were homogenized in 15 mM Tris-HCl pH 7.5, 2 mM MgCl2, 0.3 mM EDTA, and 1 mM EGTA. […] Membranes were frozen in liquid nitrogen until use. On the day of the assay, membranes were thawed and diluted in assay buffer (20 mM HEPES pH 7.4, 100 mM NaCl, 10 μg/ml saponin, 1 mM MgCl2) to give 500 μg/ml and mixed (v/v) with GDP in assay buffer for a final GDP concentration of 10 μM and incubated on ice for at least […]. PVT-WGA beads (Amersham, RPNQ001) were diluted in assay buffer at 50 mg/mL and mixed with GTPγ[^35S] (Amersham, SJ1308) diluted in assay buffer to give ˜25,000 dpm/10 μL and mixed vol/vol just before the start of the reaction.
For antagonists testing, 10 μL of a reference agonist ([…]) instead of 10 μL buffer was added at a concentration corresponding to the EC80 (30 nM).
The compounds provided herein were tested in the histamine H3 in vitro assay. In one embodiment, the respective HCl salts of the compounds provided herein were prepared using standard chemical procedures and tested in the histamine H3 in vitro assay.
For `Brc1ccc2c(c1)nc1n2CCN2CCCC2C1` (stereo not shown) [Compound 72, 10-bromo-2,3,5,6,13,13a-hexahydro-1H-benzo[4,5]imidazo[1,2-d]pyrrolo[2,1-g][1,4]diazepine], the IC50 is below 100 nM.

Still in this assay, the particulars now being: membranes of cells expressing human H3; GTPγ[35S] SPA; antagonist testing with reference agonist at EC80 (30 nM); in one embodiment HCl salts tested; read-out: Potency (functional potency as indicated by IC50).
For `c1ccc2c(c1)CCN(Cc1ccc3c(c1)nc1n3CCN3CCCC[C@@H]3C1)C2` (single isomer, unassigned) [Compound 64], the IC50 was below 10 nM. On the same count and under the same terms, as for `CC1Cc2nc3cc(-c4ccc(C#N)cc4)ccc3n2CCN1C1CCC1` (stereo not shown) [Compound 41, 4-(3-cyclobutyl-4-methyl-2,3,4,5-tetrahydro-1H-benzo[4,5]imidazo[1,2-d][1,4]diazepin-8-yl)benzonitrile], the figure is below 10 nM. Still for that read-out and setting: as for `CC1Cn2c(nc3cc(Br)ccc32)CCN1C1CCC1` (stereo not shown) [Compound 42, 8-bromo-3-cyclobutyl-2-methyl-2,3,4,5-tetrahydro-1H-benzo[4,5]imidazo[1,2-d][1,4]diazepine], the figure is below 1000 nM; as for `CC1Cn2c(nc3cc(-c4ccc(C#N)cc4)ccc32)CCN1C1CCC1` (stereo not shown) [Compound 43, 4-(3-cyclobutyl-2-methyl-2,3,4,5-tetrahydro-1H-benzo[4,5]imidazo[1,2-d][1,4]diazepin-8-yl)benzonitrile], below 100 nM; as for `c1cn2cc(-c3ccc4c(c3)nc3n4CCN4CCCC[C@H]4C3)ccc2n1` [Compound 49, (S)-11-(imidazo[1,2-a]pyridin-6-yl)-1,2,3,4,6,7,14,14a-octahydrobenzo[4,5]imidazo[1,2-d]pyrido[2,1-g][1,4]diazepine], below 100 nM. `Brc1ccc2c(c1)nc1n2CCN(C2CCC2)C1` [Compound 52, 8-bromo-2-cyclobutyl-1,2,3,4-tetrahydrobenzo[4,5]imidazo[1,2-a]pyrazine]: the IC50 is above 1000 nM. As for `N#Cc1ccc(-c2ccc3c(c2)nc2n3CCN(C3CCC3)C2)cc1` [Compound 53, 4-(2-cyclobutyl-1,2,3,4-tetrahydrobenzo-[4,5]imidazo[1,2-a]pyrazin-8-yl)benzonitrile], the IC50 was below 1000 nM.

With `c1cn2cc(-c3ccc4c(c3)nc3n4CCN(C4CCC4)C3)ccc2n1` [Compound 54, 2-cyclobutyl-8-(imidazo[1,2-a]pyridin-6-yl)-1,2,3,4-tetrahydrobenzo[4,5]imidazo[1,2-a]pyrazine], the IC50 is below 1000 nM. `c1ccc2c(c1)ncn2-c1ccc2c(c1)nc1n2CCN(C2CCC2)C1` [Compound 55, 8-(1H-benzo[d]imidazol-1-yl)-2-cyclobutyl-1,2,3,4-tetrahydrobenzo[4,5]imidazo[1,2-a]pyrazine]: the IC50 was below 1000 nM.

Consider `c1cc2c(cc1CN1CCOCC1)nc1n2CCN(C2CCC2)C1` [Compound 56, 4-((2-cyclobutyl-1,2,3,4-tetrahydrobenzo-[4,5]imidazo[1,2-a]pyrazin-8-yl)methyl)morpholine], for which the IC50 was below 10 nM. For `Clc1ccc2c(c1)nc1n2CCCN(C2CCC2)CC1` [Compound 57, 10-chloro-3-cyclobutyl-1,2,3,4,5,6-hexahydrobenzo[4,5]imidazo[1,2-a][1,5]diazocine], the IC50 was below 100 nM. Regarding `N#Cc1ccc(-c2ccc3c(c2)nc2n3CCCN(C3CCC3)CC2)cc1` [Compound 58, 4-(3-cyclobutyl-1,2,3,4,5,6-hexahydrobenzo[4,5]imidazo[1,2-a][1,5]diazocin-10-yl)benzonitrile], the IC50 was below 10 nM.

Turning to `c1cn2cc(-c3ccc4c(c3)nc3n4CC4CCC(C3)N4C3CCC3)ccc2n1` (stereo not shown) [Compound 60, 13-cyclobutyl-3-(imidazo[1,2-a]pyridin-6-yl)-6,7,8,9,10,11-hexahydro-7,10-epiminobenzo[4,5]imidazo[1,2-a]azocine], the IC50 was below 10 nM.

For `c1ccc2c(c1)ncn2-c1ccc2c(c1)nc1n2CC2CCC(C1)N2C1CCC1` (stereo not shown) [Compound 61, 3-(1H-benzo[d]imidazol-1-yl)-13-cyclobutyl-6,7,8,9,10,11-hexahydro-7,10-epiminobenzo[4,5]imidazo[1,2-a]azocine], the IC50 was below 100 nM. `c1cc2c(cc1CN1CCOCC1)nc1n2CC2CCC(C1)N2C1CCC1` (stereo not shown) [Compound 62, 4-((13-cyclobutyl-6,7,8,9,10,11-hexahydro-7,10-epiminobenzo[4,5]imidazo[1,2-a]azocin-3-yl)methyl)morpholine]: the IC50 is below 100 nM. As to `c1ccc2c(c1)CCN(Cc1ccc3c(c1)nc1n3CCN3CCCC[C@H]3C1)C2` [Compound 65, (S)-11-((3,4-dihydroisoquinolin-2(1H)-yl)methyl)-1,2,3,4,6,7,14,14a-octahydrobenzo[4,5]imidazo[1,2-d]pyrido[2,1-g][1,4]diazepine], the IC50 is below 100 nM.

Regarding `N#Cc1ccc(-c2ccc3c(c2)nc2n3CCCN3CCCCC3C2)cc1` (stereo not shown) [Compound 66, 4-(2,3,4,6,7,8,15,15a-octahydro-1H-benzo[4,5]imidazo[1,2-a]pyrido[2,1-d][1,5]diazocin-12-yl)benzonitrile], the IC50 is below 10 nM. Regarding `c1cn2cc(-c3ccc4c(c3)nc3n4CCCN4CCCCC4C3)ccc2n1` (stereo not shown) [Compound 67, 12-(imidazo[1,2-a]pyridin-6-yl)-2,3,4,6,7,8,15,15a-octahydro-1H-benzo[4,5]imidazo[1,2-a]pyrido[2,1-d][1,5]diazocine], the half-maximal inhibitory concentration (IC50) was below 10 nM. As to `c1cc2c(cc1CN1CCOCC1)nc1n2CCCN2CCCCC2C1` (stereo not shown) [Compound 68, 4-((2,3,4,6,7,8,15,15a-octahydro-1H-benzo[4,5]imidazo[1,2-a]pyrido[2,1-d][1,5]diazocin-12-yl)methyl)morpholine], the IC50 is below 100 nM. Consider `c1ccc2c(c1)CCN(Cc1ccc3c(c1)nc1n3CCCN3CCCCC3C1)C2` (stereo not shown) [Compound 69], for which the IC50 is below 100 nM.

Regarding `N#Cc1ccc(-c2ccc3c(c2)nc2n3CCN3CCCC3C2)cc1` (stereo not shown) [Compound 73, 4-(2,3,5,6,13,13a-hexahydro-1H-benzo[4,5]imidazo[1,2-d]pyrrolo[2,1-g][1,4]diazepin-10-yl)benzonitrile], the IC50 was below 10 nM. On to `c1cn2cc(-c3ccc4c(c3)nc3n4CCN4CCCC4C3)ccc2n1` (stereo not shown) [Compound 74, 10-(imidazo[1,2-a]pyridin-6-yl)-2,3,5,6,13,13a-hexahydro-1H-benzo[4,5]imidazo[1,2-d]pyrrolo[2,1-g][1,4]diazepine], for which the IC50 was below 10 nM.

As to `c1cc2c(cc1CN1CCOCC1)nc1n2CCN2CCCC2C1` (stereo not shown) [Compound 75, 4-((2,3,5,6,13,13a-hexahydro-1H-benzo[4,5]imidazo[,2-d]pyrrolo[2,1-g][1,4]diazepin-10-yl)methyl)morpholine], the IC50 is below 10 nM.

As to `c1ccc2c(c1)CCN(Cc1ccc3c(c1)nc1n3CCN3CCCC3C1)C2` (stereo not shown) [Compound 76, 10-((3,4-dihydroisoquinolin-2(1H)-yl)methyl)-2,3,5,6,13,13a-hexahydro-1H-benzo[4,5]imidazo[1,2-d]pyrrolo[2,1-g][1,4]diazepine], the IC50 is below 10 nM. Same read-out and setting: for `Brc1ccc2c(c1)nc1n2CCCN2CCCC2C1` (stereo not shown) [Compound 79, 11-bromo-1,2,3,5,6,7,14,14a-octahydrobenzo[4,5]imidazo[1,2-a]pyrrolo[2,1-d][1,5]diazocine] the value was below 100 nM; for `N#Cc1ccc(-c2ccc3c(c2)nc2n3CCCN3CCCC3C2)cc1` (stereo not shown) [Compound 80, 4-(1,2,3,5,6,7,14,14a-octahydrobenzo[4,5]imidazo[1,2-a]pyrrolo[2,1-d][1,5]diazocin-11-yl)benzonitrile], below 10 nM. For the molecule `c1cn2cc(-c3ccc4c(c3)nc3n4CCCN4CCCC4C3)ccc2n1` (stereo not shown) [Compound 81, 11-(imidazo[1,2-a]pyridin-6-yl)-1,2,3,5,6,7,14,14a-octahydrobenzo[4,5]imidazo[1,2-a]pyrrolo[2,1-d][1,5]diazocine], the IC50 is below 10 nM. Still for that read-out and setting: for `c1cc2c(cc1CN1CCOCC1)nc1n2CCCN(C2CCC2)CC1` [Compound 84, 4-((3-cyclobutyl-1,2,3,4,5,6-hexahydrobenzo[4,5]imidazo[1,2-a][1,5]diazocin-10-yl)methyl)morpholine] the value was below 10 nM.

The next assay deals with T1, H3 receptor (Rattus norvegicus, UniProt Q9QYN8).
T1 construct: membranes to be tested were prepared from brain frontal cortex membranes by homogenization; from tissue; host or cells: frontal cortex of adult male Sprague-Dawley rats
T1 sequence (Q9QYN8 whole entry): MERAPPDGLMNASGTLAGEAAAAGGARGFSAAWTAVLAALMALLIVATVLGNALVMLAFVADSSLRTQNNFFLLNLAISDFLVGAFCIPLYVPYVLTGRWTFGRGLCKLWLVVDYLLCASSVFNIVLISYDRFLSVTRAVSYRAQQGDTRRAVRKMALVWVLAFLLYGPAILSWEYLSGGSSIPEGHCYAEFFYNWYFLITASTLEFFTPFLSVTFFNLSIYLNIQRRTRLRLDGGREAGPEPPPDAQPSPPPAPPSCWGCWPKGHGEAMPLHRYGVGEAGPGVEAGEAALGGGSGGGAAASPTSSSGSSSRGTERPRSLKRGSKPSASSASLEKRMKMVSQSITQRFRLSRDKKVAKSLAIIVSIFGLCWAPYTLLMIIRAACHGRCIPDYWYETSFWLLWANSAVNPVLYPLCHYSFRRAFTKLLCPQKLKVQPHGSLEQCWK
Nature of the assay: Rat H3 ex vivo receptor occupancy assay. The conditions noted are these: dose giving 50% H3 receptor occupancy; ex vivo binding of [3H] R-α-methylhistamine in rat frontal cortical membranes. How it is done: This assay was designed to measure occupancy of H3 receptors by compounds provided herein by measuring the competition of binding to the H3 receptor with a radiolabeled ligand known to bind to the H3 receptor. More specifically, receptor occupancy was determined by ex vivo binding studies in rat cortical membranes.
Adult male Sprague-Dawley rats were treated with vehicle or compound at four different dose levels. After an appropriate pre-treatment time (typically 30 min to 1 hr), membranes to be tested were prepared from brain frontal cortex membranes by homogenization in ice-cold assay buffer. Frontal cortical membranes (400 μL containing an equivalent of 5 mg wet weight of tissue/tube) were incubated with 50 µL of [^3H] R-α-methylhistamine (final concentration 2 nM) and either 50 μL of buffer (total binding) or 50 μL of imetit (10 μM; non-specific binding) for 30 min at 25° C. in triplicates. Membrane bound radioactivity was recovered by filtration under vacuum through Skatron 11731 filters, pre-soaked in 0.5% PEI. Filters were rapidly washed with ice-cold 50 mM Tris buffer (wash setting 9,9,0) and radioactivity was determined by liquid scintillation counting (1 mL Packard MV Gold Scintillator). The amount of radioactivity in the membranes at the different doses was used generate a dose response curve and to calculate the ED50 (the dose that results in 50% receptor occupancy).
ED50 is the amount of drug at which 50% of the H3 receptors are occupied by the drug as measured by the amount of radioactivity measured at that dose relative to that measured when no drug (or vehicle) was administered.
Molecule `c1ccc2c(c1)CCN(Cc1ccc3c(c1)nc1n3CCN3CCCC[C@@H]3C1)C2` (single isomer, unassigned) [Compound 64] yielded an ED50 of at least 1 mg/kg. Consider `c1cc2c(cc1CN1CCOCC1)nc1n2CCCN(C2CCC2)CC1` [Compound 84, 4-((3-cyclobutyl-1,2,3,4,5,6-hexahydrobenzo[4,5]imidazo[1,2-a][1,5]diazocin-10-yl)methyl)morpholine], for which the ED50 was at least 1 mg/kg.

In general, IC50 refers to the point on the concentration scale where inhibition reaches its midpoint. As usually defined, the ED50 is the midpoint of the dose-response relation. High values mean a need for a large dose, low ones an effect at a small dose.
